# Data as given in patent publication US12473304B2, “Heterocyclic PAD4 inhibitors” (BRISTOL-MYERS SQUIBB COMPANY, priority 2020, dated 2025).
# Molecular target: human PAD4 (hPAD4) (Homo sapiens (Human), UniProt Q9UM07)
# Test: RFMS Human PAD4 Functional Assay 1
# Assay type: biochemical
# Conditions: RFMS assay 1; 5 nM hPAD4, 250 μM BAEE substrate, 50 μM calcium, 37° C.
# Procedure, shortened: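 Recombinant hPAD4 (5 nM) was preincubated with compound (top 50 μM, 0.5% DMSO) for 30 min at 37 °C, then reacted with 250 μM BAEE for 90 min at 37 °C in pH 7.5 HEPES buffer with 50 μM calcium and 5 μM TPEN. Product was derivatized with phenyl glyoxal and quantified by RapidFire MS.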
# human PAD4 (hPAD4), sequence (Q9UM07 whole entry): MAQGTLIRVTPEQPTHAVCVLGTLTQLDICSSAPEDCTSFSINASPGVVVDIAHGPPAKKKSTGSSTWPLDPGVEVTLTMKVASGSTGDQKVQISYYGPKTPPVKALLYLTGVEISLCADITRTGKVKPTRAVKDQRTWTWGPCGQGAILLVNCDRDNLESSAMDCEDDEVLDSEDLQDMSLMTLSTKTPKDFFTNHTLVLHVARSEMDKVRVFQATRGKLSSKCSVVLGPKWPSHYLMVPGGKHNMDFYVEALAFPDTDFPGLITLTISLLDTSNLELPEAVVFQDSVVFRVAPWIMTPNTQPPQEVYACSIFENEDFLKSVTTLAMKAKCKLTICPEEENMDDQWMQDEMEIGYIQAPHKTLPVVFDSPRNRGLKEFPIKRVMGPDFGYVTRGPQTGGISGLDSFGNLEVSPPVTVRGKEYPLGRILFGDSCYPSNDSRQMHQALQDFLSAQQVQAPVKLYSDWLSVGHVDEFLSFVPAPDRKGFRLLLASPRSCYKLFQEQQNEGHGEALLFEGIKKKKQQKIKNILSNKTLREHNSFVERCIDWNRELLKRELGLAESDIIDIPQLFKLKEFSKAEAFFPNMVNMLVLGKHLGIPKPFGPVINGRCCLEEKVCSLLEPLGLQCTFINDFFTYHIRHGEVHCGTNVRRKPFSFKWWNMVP
row,SMILES,IC50 [nM]
1,"COc1cc(C(=O)N2CC3CCC2[C@@H]3N)cn2nc(-c3cc4ccc(-c5ccc6c(c5)CNC6=O)nc4n3CC3CC3)c(C)c12 (stereo partly drawn) [Example 5, 5-(2-(6-((7R)-7-Amino-2-azabicyclo[2.2.1]-heptane-2-carbonyl)-4-methoxy-3-methylpyrazolo[1,5-a]pyridin-2-yl)-1-(cyclopropylmethyl)-1H-pyrrolo[2,3-b]pyridin-6-yl)isoindolin-1-one]",27
2,"COc1cc(C(=O)N2CC3CCC2[C@@H]3N)cn2nc(-c3cc4ccc(-c5cnn(C(C)C)c5)nc4n3CC3CC3)c(C)c12 (stereo partly drawn) [Example 7, ((7R)-7-Amino-2-azabicyclo[2.2.1]heptan-2-yl)(2-(1-(cyclopropylmethyl)-6-(1-isopropyl-1H-pyrazol-4-yl)-1H-pyrrolo[2,3-b]pyridin-2-yl)-4-methoxy-3-methylpyrazolo[1,5-a]pyridin-6-yl)methanone]",412
3,"COc1cc(C(=O)N2CC3CCC2[C@@H]3N)cn2nc(-c3cc4ccc(-c5ccn6c(C)nnc6c5)nc4n3CC3CC3)c(C)c12 (stereo partly drawn) [Example 8, ((7R)-7-Amino-2-azabicyclo[2.2.1]heptan-2-yl)(2-(1-(cyclopropylmethyl)-6-(3-methyl-[1,2,4]triazolo[4,3-a]pyridin-7-yl)-1H-pyrrolo[2,3-b]pyridin-2-yl)-4-methoxy-3-methylpyrazolo[1,5-a]pyridin-6-yl)methanone]",37
4,"COc1cc(C(=O)N2CC3CCC2[C@@H]3N)cn2nc(-c3cc4ccc(-c5cccc(O)c5F)nc4n3CC3CC3)c(C)c12 (stereo partly drawn) [Example 9, ((7R)-7-Amino-2-azabicyclo[2.2.1]heptan-2-yl)(2-(1-(cyclopropylmethyl)-6-(2-fluoro-3-hydroxyphenyl)-1H-pyrrolo[2,3-b]pyridin-2-yl)-4-methoxy-3-methylpyrazolo[1,5-a]pyridin-6-yl)methanone]",120
5,"COc1cc(C(=O)N2CC3CCC2[C@@H]3N)cn2nc(-c3cc4ccc(-c5ccc(O)c(F)c5)nc4n3CC3CC3)c(C)c12 (stereo partly drawn) [Example 10, ((7R)-7-Amino-2-azabicyclo[2.2.1]heptan-2-yl)(2-(1-(cyclopropylmethyl)-6-(3-fluoro-4-hydroxyphenyl)-1H-pyrrolo[2,3-b]pyridin-2-yl)-4-methoxy-3-methylpyrazolo[1,5-a]pyridin-6-yl)methanone]",159
6,"COc1cc(C(=O)N2CC3CCC2[C@@H]3N)cn2nc(-c3cc4ccc(-c5ccc(OC(F)F)cc5)nc4n3CC3CC3)c(C)c12 (stereo partly drawn) [Example 11, ((7R)-7-Amino-2-azabicyclo[2.2.1]heptan-2-yl)(2-(1-(cyclopropylmethyl)-6-(4-(difluoromethoxy)phenyl)-1H-pyrrolo[2,3-b]pyridin-2-yl)-4-methoxy-3-methylpyrazolo[1,5-a]pyridin-6-yl)methanone]",1370
7,"COc1cc(C(=O)N2CC3CCC2[C@@H]3N)cn2nc(-c3cc4ccc(-c5ccc(OC(F)F)c(F)c5)nc4n3CC3CC3)c(C)c12 (stereo partly drawn) [Example 12, ((7R)-7-Amino-2-azabicyclo[2.2.1]heptan-2-yl)(2-(1-(cyclopropylmethyl)-6-(4-(difluoromethoxy)-3-fluorophenyl)-1H-pyrrolo[2,3-b]pyridin-2-yl)-4-methoxy-3-methylpyrazolo[1,5-a]pyridin-6-yl)methanone]",2320
8,"COc1cc(C(=O)N2CC3CCC2[C@@H]3N)cn2nc(-c3cc4ccc(N5CC(OC)C5)nc4n3CC3CC3)c(C)c12 (stereo partly drawn) [Example 13, ((7R)-7-Amino-2-azabicyclo[2.2.1]heptan-2-yl)(2-(1-(cyclopropylmethyl)-6-(3-methoxyazetidin-1-yl)-1H-pyrrolo[2,3-b]pyridin-2-yl)-4-methoxy-3-methylpyrazolo[1,5-a]pyridin-6-yl)methanone]",163
9,"COc1cc(C(=O)N2CC3CCC2[C@@H]3N)cn2nc(-c3cc4ccccc4n3CC3CC3)c(C)c12 (stereo partly drawn) [Example 22, ((7R)-7-Amino-2-azabicyclo[2.2.1]heptan-2-yl)(2-(1-(cyclopropylmethyl)-1H-indol-2-yl)-4-methoxy-3-methylpyrazolo[1,5-a]pyridin-6-yl)methanone]",2150
10,"COc1cc(C(=O)N2CC3CCC2[C@@H]3N)cn2nc(-c3cc4ccc(-c5ccc6c(c5)C(=O)NC6)cc4n3CC3CC3)c(C)c12 (stereo partly drawn) [Example 23, 6-(2-(6-((7R)-7-Amino-2-azabicyclo[2.2.1]heptane-2-carbonyl)-4-methoxy-3-methylpyrazolo[1,5-a]pyridin-2-yl)-1-(cyclopropylmethyl)-1H-indol-6-yl)isoindolin-1-one]",108
11,"COc1cc(C(=O)N2CC3CCC2[C@@H]3N)cn2nc(-c3cc4ccc(-c5ccc6c(c5)CNC6=O)cc4n3CC3CC3)c(C)c12 (stereo partly drawn) [Example 24, 5-(2-(6-((7R)-7-Amino-2-azabicyclo[2.2.1]heptane-2-carbonyl)-4-methoxy-3-methylpyrazolo[1,5-a]pyridin-2-yl)-1-(cyclopropylmethyl)-1H-indol-6-yl)isoindolin-1-one]",31
12,"COc1cc(C(=O)N2CC3CCC2[C@@H]3N)cn2nc(-c3cc4ccc(-c5ccn6c(C)nnc6c5)cc4n3CC3CC3)c(C)c12 (stereo partly drawn) [Example 25, ((7R)-7-Amino-2-azabicyclo[2.2.1]heptan-2-yl)(2-(1-(cyclopropylmethyl)-6-(3-methyl-[1,2,4]triazolo[4,3-a]pyridin-7-yl)-1H-indol-2-yl)-4-methoxy-3-methylpyrazolo[1,5-a]pyridin-6-yl)methanone]",17
13,"COc1cc(C(=O)N2CC3CCC2[C@@H]3N)cn2nc(-c3cc4ccc(-c5ccc(OC(F)F)cc5)cc4n3CC3CC3)c(C)c12 (stereo partly drawn) [Example 26, ((7R)-7-Amino-2-azabicyclo[2.2.1]heptan-2-yl)(2-(1-(cyclopropylmethyl)-6-(4-(difluoromethoxy)phenyl)-1H-indol-2-yl)-4-methoxy-3-methylpyrazolo[1,5-a]pyridin-6-yl)methanone]",449
14,"COc1cc(C(=O)N2CC3CCC2[C@@H]3N)cn2nc(-c3cc4ccc(C)cc4n3CC3CC3)c(C)c12 (stereo partly drawn) [Example 27, ((7R)-7-Amino-2-azabicyclo[2.2.1]heptan-2-yl)(2-(1-(cyclopropylmethyl)-6-methyl-1H-indol-2-yl)-4-methoxy-3-methylpyrazolo[1,5-a]pyridin-6-yl)methanone]",22
15,"COc1cc(C(=O)N2C[C@H](N)C[C@@H](F)C2)cn2nc(-c3cc4ccc(-c5ccc6c(c5)C(=O)NC6)cc4n3CC3CC3)c(C)c12 [Example 29, 6-(2-(6-((3R,5R)-3-Amino-5-fluoropiperidine-1-carbonyl)-4-methoxy-3-methylpyrazolo[1,5-a]pyridin-2-yl)-1-(cyclopropylmethyl)-1H-indol-6-yl)isoindolin-1-one]",1020

# Other lines, results leading:
row,IC50 [nM],SMILES
1,32,"COc1cc(C(=O)N2CC3CCC2[C@@H]3N)cn2nc(-c3cc4ccc(C5CC5)nc4n3CC3CC3)c(C)c12 (stereo partly drawn) [Example 6, ((7R)-7-Amino-2-azabicyclo[2.2.1]heptan-2-yl)(2-(6-cyclopropyl-1-(cyclopropylmethyl)-1H-pyrrolo[2,3-b]pyridin-2-yl)-4-methoxy-3-methylpyrazolo[1,5-a]pyridin-6-yl)methanone]"
2,906,"COc1cc(C(=O)N2C[C@H](N)C[C@@H](F)C2)cn2nc(-c3cc4cccnc4n3CC3CC3)c(C)c12 [Example 14, ((3R,5R)-3-Amino-5-fluoropiperidin-1-yl)(2-(1-(cyclopropylmethyl)-1H-pyrrolo[2,3-b]pyridin-2-yl)-4-methoxy-3-methylpyrazolo[1,5-a]pyridin-6-yl)methanone]"
3,407,"COc1cc(C(=O)N2C[C@H](N)C[C@@H](F)C2)cn2nc(-c3cc4ccc(-c5ccc6c(c5)C(=O)NC6)nc4n3CC3CC3)c(C)c12 [Example 16, 6-(2-(6-((3R,5R)-3-Amino-5-fluoropiperidine-1-carbonyl)-4-methoxy-3-methylpyrazolo[1,5-a]pyridin-2-yl)-1-(cyclopropylmethyl)-1H-pyrrolo[2,3-b]pyridin-6-yl)isoindolin-1-one]"
4,75,"COc1cc(C(=O)N2C[C@H](N)C[C@@H](F)C2)cn2nc(-c3cc4ccc(C)nc4n3CC3CC3)c(C)c12 [Example 17, ((3R,5R)-3-Amino-5-fluoropiperidin-1-yl)(2-(1-(cyclopropylmethyl)-6-methyl-1H-pyrrolo[2,3-b]pyridin-2-yl)-4-methoxy-3-methylpyrazolo[1,5-a]pyridin-6-yl)-methanone]"
5,168,"COc1cc(C(=O)N2C[C@H](N)C[C@@H](F)C2)cn2nc(-c3cc4ccc(C5CC5)nc4n3CC3CC3)c(C)c12 [Example 19, ((3R,5R)-3-Amino-5-fluoropiperidin-1-yl)(2-(6-cyclopropyl-1-(cyclopropylmethyl)-1H-pyrrolo[2,3-b]pyridin-2-yl)-4-methoxy-3-methylpyrazolo[1,5-a]pyridin-6-yl)methanone]"
6,116,"COc1cc(C(=O)N2C[C@H](N)C[C@@H](F)C2)cn2nc(-c3cc4ccc(-c5ccc6c(c5)CNC6=O)nc4n3CC3CC3)c(C)c12 [Example 20, 5-(2-(6-((3R,5R)-3-Amino-5-fluoropiperidine-1-carbonyl)-4-methoxy-3-methylpyrazolo[l,5-a]pyridin-2-yl)-1-(cyclopropylmethyl)-1H-pyrrolo[2,3-b]pyridin-6-yl)isoindolin-1-one]"
7,91,"COc1cc(C(=O)N2C[C@H](N)C[C@@H](F)C2)cn2nc(-c3cc4ccc(-c5ccn6c(C)nnc6c5)nc4n3CC3CC3)c(C)c12 [Example 21, ((3R,5R)-3-Amino-5-fluoropiperidin-1-yl)(2-(1-(cyclopropylmethyl)-6-(3-methyl-[1,2,4]triazolo[4,3-a]pyridin-7-yl)-1H-pyrrolo[2,3-b]pyridin-2-yl)-4-methoxy-3-methylpyrazolo[1,5-a]pyridin-6-yl)methanone]"
8,84,"COc1cc(C(=O)N2C[C@H](N)C[C@@H](F)C2)cn2nc(-c3cc4ccc(-c5ccc6c(c5)CNC6=O)cc4n3CC3CC3)c(C)c12 [Example 30, 5-(2-(6-((3R,5R)-3-Amino-5-fluoropiperidine-1-carbonyl)-4-methoxy-3-methylpyrazolo[1,5-a]pyridin-2-yl)-1-(cyclopropylmethyl)-1H-indol-6-yl)isoindolin-1-one]"
